PubChem BioAssay AID256 (DTP/NCI, 2004)
“And” between values parts separate entries of the source, which are not always exact repeats. Identical values can stand only once. Toxic doses and inconclusive results are not listed. The calls were made as follows: active = survival T/C of 150% or more; inactive = T/C below 125% in these data.

Tested on: CD2F1 mice, L1210 leukemia ip, survival T/C
Experiment: NCI In Vivo Anticancer Drug Screen. Data for tumor model L1210 Leukemia (intraperitoneal) in CD2F1 (CDF1) mice
Details: endpoint: mean survival time, higher = longer survival
In short: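 Vehicle-treated tumor-bearing mice served as controls (C) for compound-treated mice (T). Reported figure is T divided by C.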

[1] = dose: 25.0 mg/kg/injection, schedule: Q01DX009 (ip), vehicle: saline
[2] = dose: 50.0 mg/kg/injection, schedule: Q01DX009 (ip), vehicle: saline
[3] = dose: 100.0 mg/kg/injection, schedule: Q04DX003 (ip), vehicle: saline with Tween-80
[4] = dose: 200.0 mg/kg/injection, schedule: Q04DX003 (ip), vehicle: saline with Tween-80
[5] = dose: 100.0 mg/kg/injection, schedule: Q01DX001 (ip), vehicle: saline with Tween-80
[6] = dose: 200.0 mg/kg/injection, schedule: Q01DX001 (ip), vehicle: saline with Tween-80
[7] = dose: 400.0 mg/kg/injection, schedule: Q01DX001 (ip), vehicle: saline with Tween-80
[8] = dose: 100.0 mg/kg/injection, schedule: Q01DX009 (ip), vehicle: saline with Tween-80
[9] = dose: 200.0 mg/kg/injection, schedule: Q01DX009 (ip), vehicle: saline with Tween-80
[10] = dose: 400.0 mg/kg/injection, schedule: Q01DX009 (ip), vehicle: saline with Tween-80
[11] = dose: 100.0 mg/kg/injection, schedule: Q04DX002 (ip), vehicle: saline with Tween-80
[12] = dose: 200.0 mg/kg/injection, schedule: Q04DX002 (ip), vehicle: saline with Tween-80
[13] = dose: 400.0 mg/kg/injection, schedule: Q04DX002 (ip), vehicle: saline with Tween-80
[14] = dose: 25.0 mg/kg/injection, schedule: Q04DX003 (ip), vehicle: saline with Tween-80
[15] = dose: 400.0 mg/kg/injection, schedule: Q04DX003 (ip), vehicle: saline with Tween-80

Measured: T/C

CNC(=O)Oc1cccn(C(=O)NC)c1=O
inactive: dose: 12.5 mg/kg/injection, schedule: Q01DX009 (ip), vehicle: saline 98 % of control and 101 % of control | [1] 103 % of control and 107 % of control | [2] 107 % of control and 109 % of control | dose: 75.0 mg/kg/injection, schedule: Q01DX009 (ip), vehicle: Klucel (hydroxypropylcellulose) (HPC) 112 % of control | dose: 75.0 mg/kg/injection, schedule: Q01DX009 (ip), vehicle: saline 104 % of control and 109 % of control and 112 % of control | dose: 100.0 mg/kg/injection, schedule: Q01DX009 (ip), vehicle: saline 115 % of control | dose: 150.0 mg/kg/injection, schedule: Q01DX009 (ip), vehicle: saline 113 % of control and 110 % of control

O=C(N/N=C/c1ccc([N+](=O)[O-])cc1[N+](=O)[O-])c1ccncc1
inactive: dose: 12.5 mg/kg/injection, schedule: Q01DX009 (ip), vehicle: other 95 % of control | dose: 25.0 mg/kg/injection, schedule: Q01DX009 (ip), vehicle: other 91 % of control | dose: 50.0 mg/kg/injection, schedule: Q01DX009 (ip), vehicle: other 91 % of control | dose: 100.0 mg/kg/injection, schedule: Q01DX009 (ip), vehicle: other 89 % of control | dose: 200.0 mg/kg/injection, schedule: Q01DX009 (ip), vehicle: other 93 % of control

COc1ccc(C#N)c([N+](=O)[O-])c1
inactive: [3] 95 % of control | [4] 114 % of control

Cc1ccc(NC(=O)Nc2cccc(-n3cnc4c(=O)[nH]c(N)nc43)c2)cc1S(=O)(=O)F
inactive: [5] 86 % of control | [6] 88 % of control | [7] 89 % of control

CC(=O)Nc1cccc(Oc2ccc([N+](=O)[O-])cc2)c1
inactive: dose: 100.0 mg/kg/injection, schedule: Q04DX002 (ip), vehicle: Klucel (hydroxypropylcellulose) (HPC) 98 % of control | dose: 200.0 mg/kg/injection, schedule: Q04DX002 (ip), vehicle: Klucel (hydroxypropylcellulose) (HPC) 103 % of control | dose: 400.0 mg/kg/injection, schedule: Q04DX002 (ip), vehicle: Klucel (hydroxypropylcellulose) (HPC) 98 % of control

CCCCCCOS(=O)OC(C)C(Cl)C(=O)OCC (stereo not drawn)
inactive: [8] 97 % of control | [9] 97 % of control | [10] 100 % of control

OCC#CCO
inactive: dose: 12.0 mg/kg/injection, schedule: Q01DX009 (ip), vehicle: saline 94 % of control | [1] 93 % of control | [2] 104 % of control

COc1ccc(-c2nc(N)c3ncn(C4OC(CO)C(O)C4O)c3n2)cc1 (stereo not drawn)
inactive: dose: 12.5 mg/kg/injection, schedule: Q01DX005 (ip), vehicle: distilled water + Tween-80 98 % of control | dose: 25.0 mg/kg/injection, schedule: Q01DX005 (ip), vehicle: distilled water + Tween-80 98 % of control | dose: 50.0 mg/kg/injection, schedule: Q01DX005 (ip), vehicle: distilled water + Tween-80 96 % of control | dose: 200.0 mg/kg/injection, schedule: Q01DX005 (ip), vehicle: distilled water + Tween-80 88 % of control

O=c1c2ccccc2ncn1CCc1ccncc1
inactive: dose: 100.0 mg/kg/injection, schedule: Q01DX001 (ip), vehicle: saline 104 % of control | dose: 200.0 mg/kg/injection, schedule: Q01DX001 (ip), vehicle: saline 101 % of control | dose: 400.0 mg/kg/injection, schedule: Q01DX001 (ip), vehicle: saline 103 % of control

Cc1cc(C(O)c2ccccn2)c2cc(Cl)cc(Cl)c2n1 (stereo not drawn)
inactive: [11] 97 % of control | [12] 102 % of control | [13] 97 % of control

OC1C(I)CC(Cl)C2CCC[N-]C12.OC1C(I)CC(Cl)C2CCC[N-]C12.[Cu+2] (stereo not drawn)
inactive: [11] 96 % of control | [12] 92 % of control | [13] 88 % of control

O=c1[nH]cc[nH]1
inactive: dose: 267.0 mg/kg/injection, schedule: Q01DX009 (ip), vehicle: saline 111 % of control

C=C1C(=O)OC2(C)C(C)=C(C)C12C (stereo not drawn)
inactive: dose: 100.0 mg/kg/injection, schedule: Q04DX003 (ip), vehicle: saline 101 % of control | dose: 200.0 mg/kg/injection, schedule: Q04DX003 (ip), vehicle: saline 112 % of control | dose: 400.0 mg/kg/injection, schedule: Q04DX003 (ip), vehicle: saline 108 % of control

CCOC(=O)c1cc(=O)c2ccccc2[nH]1
inactive: dose: 50.0 mg/kg/injection, schedule: Q01DX001 (ip), vehicle: saline with Tween-80 93 % of control | [5] 98 % of control | [6] 90 % of control

O=[N+]([O-])CC1CCCCC1O (stereo not drawn)
inactive: dose: 6.25 mg/kg/injection, schedule: Q01DX009 (ip), vehicle: saline with Tween-80 89 % of control | dose: 6.25 mg/kg/injection, schedule: Q04DX003 (ip), vehicle: saline with Tween-80 102 % of control | dose: 12.5 mg/kg/injection, schedule: Q01DX009 (ip), vehicle: saline with Tween-80 91 % of control | dose: 12.5 mg/kg/injection, schedule: Q04DX003 (ip), vehicle: saline with Tween-80 96 % of control | dose: 25.0 mg/kg/injection, schedule: Q01DX009 (ip), vehicle: saline with Tween-80 94 % of control | [14] 93 % of control

COc1cc2c(cc1OC)C1CCN3C(=O)CCC3N1CC2 (stereo not drawn)
inactive: [3] 102 % of control | [4] 102 % of control | [15] 108 % of control

O=C(O)C1Cc2c([nH]c3ccccc23)C2CC(C3CC4c5[nH]c6ccccc6c5CC(C(=O)O)N4C3=O)C(=O)N12 (stereo not drawn)
inactive: [11] 97 % of control | [12] 93 % of control | [13] 89 % of control

CC1C2CCC(C2)C1OC(=O)c1ccccc1C(=O)O (stereo not drawn) (tested in a mixture with another compound)
inactive: dose: 50.0 mg/kg/injection, schedule: Q01DX009 (ip), vehicle: saline with Tween-80 107 % of control | [8] 102 % of control and 93 % of control | [3] 95 % of control | [9] 95 % of control | [4] 95 % of control | [10] 94 % of control

O=S(=O)(Cc1ccccc1)CC(Br)CBr (stereo not drawn)
inactive: dose: 100.0 mg/kg/injection, schedule: Q01DX001 (ip), vehicle: Klucel (hydroxypropylcellulose) (HPC) 91 % of control | dose: 200.0 mg/kg/injection, schedule: Q01DX001 (ip), vehicle: Klucel (hydroxypropylcellulose) (HPC) 103 % of control | dose: 400.0 mg/kg/injection, schedule: Q01DX001 (ip), vehicle: Klucel (hydroxypropylcellulose) (HPC) 106 % of control

CC1CC(C)(C)NC(CCC2CCCCC23OCCO3)O1 (stereo not drawn)
inactive: [5] 107 % of control | [6] 105 % of control | [7] 97 % of control

CCOC(=O)Cc1ccncc1CC
inactive: [5] 94 % of control | [8] 97 % of control | [6] 91 % of control | [9] 104 % of control | [7] 100 % of control | [10] 101 % of control

COc1ccc(/C=C/C(=O)c2ccccc2)cc1Br
inactive: [8] 104 % of control | [3] 97 % of control | [9] 98 % of control | [4] 98 % of control | [10] 101 % of control | [15] 95 % of control

O=C(NC(NC(=O)c1ccc(Cl)cc1)C(Cl)(Cl)Cl)c1ccc(Cl)cc1
inactive: [14] 98 % of control | dose: 50.0 mg/kg/injection, schedule: Q04DX003 (ip), vehicle: saline with Tween-80 88 % of control | [3] 90 % of control

O=C(CNC(=O)Nc1cccc(Cl)c1)N/N=C/c1ccccc1Cl
inactive: [8] 106 % of control | [9] 109 % of control | [10] 112 % of control
